Experimental data reported in patent US12213479B2, “Monoterpenoid/phenylpropanoid-containing compounds and methods of their making and use as herbicides” (KITTRICH CORPORATION, priority 2016, dated 2025).

Key:
soybeans = test: Pre-emergence assay, soybean; assay type: in vivo; details: for pre-emergent effect on soybeans (words): 1%, 3-weeks after application; for qualitative growth assessment, pre-emergence: Soy, soil treated with 40 ml of 1% solution 1 day after planting, 3 weeks after application
Experimental: Soybean plants were planted under 1 cm of potting soil and watered every 2-3 days as necessary. Plants were grown in pots (6″ wide×4.5″ deep) with approximately 800 mL of soil for each plant. Plants germinated approximately 3-5 days after being planted. Plants were grown in a greenhouse under a constant temperature and light environment (25±5° C., 12 hr: 12 hr light: dark cycle).
1-day after seeds/beans were planted, soil was drenched with 40 ml of formulation with 1% active ingredient. This was done to assess germination inhibition in the soil. […] Qualitative growth assessment was made by comparing the treated plants to the untreated controls.

[1] = test system: Pigweed (Amaranthus palmeri); test: Weed soil drench assay, pigweed; assay type: in vivo; details: for Percentage mortality: Pigweed, 40 mL of 5% solution, soil drench; for chlorosis and phytotoxicity: pigweed, 40 ml of 5%, 2 days after application
Experimental: (§1) Pigweed plants were obtained from the wild in prairie fields in Iowa. Plants were carefully transplanted into pots (6″ wide×4.5″ deep) with approximately 800 mL of soil for each plant. Plants were maintained in a greenhouse under a constant temperature and light environment (25±5° C., 12 hr: 12 hr light: dark cycle). Plants were watered every 2-3 days as needed.
(§2) Formulations of the various active ingredients were created using the monoterpenoid derivatives, potassium hydroxide, and Triton-X 100™ to aid in the solvation of the active ingredient. Formulations included 5% active ingredient by weight (0.5-1 g/100 ml water), with a 1:1 molar ratio of potassium hydroxide used to aid in the solvation (135-269 mg/100 mL for both thymyloxyacetic acid and carvacryloxyacetic acid). […] Observations were performed 2 days and 3 weeks after soil drench to determine the effects of the treatments on the various types and stages of plants. Phytotoxicity is reported as percentage of total plants treated compared to a control treatment that was exposed to a similar formulation (without the active monoterpenoid derivatives).

Soybean plants [2] = test: Soil drench assay, soybean plants; assay type: in vivo; parameters: key to phytotoxicity (qualitative), soil drench: NOE: No Observable Effect; XXX: Dead; -: the lowest phytotoxic effect; --: phytotoxicity that did not result in death; ---: phytotoxicity that did not result in death; ------: the highest; details: for phytotoxicity (qualitative), soil drench: Soybean, 40 mL
Experimental: Soybean plants were planted under 1 cm of potting soil and watered every 2-3 days as necessary. Plants were grown in pots (6″ wide×4.5″ deep) with approximately 800 mL of soil for each plant. Seeds germinated approximately 3-5 days after being planted. Plants were grown in a greenhouse under a constant temperature and light environment (25±5° C., 12 hr: 12 hr light: dark cycle). Plants were grown until reaching 1-2 weeks old and 3-4 weeks old; these plants served as the “young” and “old” plants in this study, respectively.
Formulations of the various active ingredients were created using the monoterpenoid derivatives, potassium hydroxide, and Triton-X 100™ to aid in the solvation of the active ingredient. Formulations consisted of 0.5%-1% active ingredient by weight (0.5-1 g/100 ml water), with a 1:1 molar ratio of potassium hydroxide used to aid in the solvation (135-269 mg/100 mL for both thymyloxyacetic acid and carvacryloxyacetic acid). […] Formulations were applied to the soil next to the base of the stem of the plant to avoid foliar contact. Observations were performed 2 days and 3 weeks after soil drench to determine the effects of the treatments on the various types and stages of plants.

Corn plants = test: Soil drench assay, corn plants; assay type: in vivo; parameters: key to phytotoxicity (qualitative), soil drench: NOE: No Observable Effect; XXX: Dead; -: the lowest phytotoxic effect; --: phytotoxicity that did not result in death; ---: phytotoxicity that did not result in death; ------: the highest; details: for phytotoxicity (qualitative), soil drench: Corn, 40 mL
Experimental: Corn plants were planted under ½″ of potting soil and watered every 2-3 days as necessary. Plants were grown in potting plants (6″ wide×4.5″ deep) with approximately 800 mL of soil for each plant. Seeds germinated approximately 4-7 days after being planted. Plants were grown in a greenhouse under a constant temperature and light environment (25±5° C., 12 hr: 12 hr light: dark cycle). Plants were grown until reaching 1-2 weeks old and 3-4 weeks old; these plants served as the “young” and “old” plants in this study, respectively. Formulations of the various active ingredients were created using the monoterpenoid derivatives, potassium hydroxide, and Triton-X 100™ to aid in the solvation of the active ingredient. […] Formulations were applied to the soil next to the base of the stem of the plant to avoid foliar contact. Observations were performed 2 days and 3 weeks after soil drench to determine the effects of the treatments on the various types and stages of plants.

Soybean plants [3] = test: Soil drench assay, soybean plants; assay type: in vivo; parameters: key: NOE: No Observable Effect; XXX: Dead; -: the lowest phytotoxic effect; --: phytotoxicity that did not result in death; ---: phytotoxicity that did not result in death; ------: the highest; details: 3-weeks after treatment, Old Plants, 7%, 40 mL
[4] = test system: Velvetleaf (Abutilon theophrasti); test: Weed soil drench assay, velvetleaf; assay type: in vivo; details: for Percentage mortality: Velvet Leaf, 40 mL of 5% solution, soil drench; for chlorosis and phytotoxicity: velvet leaf, 40 ml of 5%, 2 days after application
Experimental: as §1, with “Velvetleaf” for “Pigweed”
as §2

corn seeds = test: Germination assay, corn seeds coated with compound; details: for corn seed germination at day 3: seed coating
[5] = test system: Dandelion (Taraxacum officinale); test: Weed soil drench assay, dandelion; assay type: in vivo; details: for Percentage mortality: Dandelions, 40 mL of 5% solution, soil drench; for chlorosis and phytotoxicity: dandelions, 40 mL of 5%, 2 days after application
Experimental: Dandelion seeds were obtained from native prairie fields in Ames, IA. Individual seeds were sown for each pot (6″ wide×4.5″ deep) with approximately 800 mL of soil for each plant. Only plants that germinated were used for the study. Plants were treated 1-2 weeks post emergence. Plants were watered every 2-3 days as needed.
as §2

[6] = 2-days after treatment, Old Plants, 0.50%
[7] = 2-days after treatment, Old Plants, 1%
[8] = 2-days after treatment, Young Plants, 0.50%
[9] = 3-weeks after treatment, Old Plants, 0.50%
[10] = 3-weeks after treatment, Young Plants, 0.50%
[11] = 3-weeks after treatment, Young Plants, 1%
[12] = 2-days after treatment, Young Plants, 1%
[13] = 3-weeks after treatment, Old Plants, 1%
[14] = young plants, 2 days after exposure, both concentrations

Structure (SMILES) | pre-emergent effect on soybeans (words) (soybeans) | qualitative growth assessment, pre-emergence (soybeans) | Percentage mortality ([1]; 2-days after treatment) | Percentage mortality ([1]; 3-weeks after treatment) | chlorosis and phytotoxicity [1] | phytotoxicity (qualitative), soil drench (Soybean plants [2]; [6]) | phytotoxicity (qualitative), soil drench (Soybean plants [2]; [7]) | phytotoxicity (qualitative), soil drench (Soybean plants [2]; [8]) | phytotoxicity (qualitative), soil drench (Soybean plants [2]; [9]) | phytotoxicity (qualitative), soil drench (Soybean plants [2]; [10]) | phytotoxicity (qualitative), soil drench (Soybean plants [2]; [11]) | effect on corn plants, soil drench (Corn plants; 3 weeks after exposure) | phytotoxicity (qualitative), soil drench (Corn plants; [6]) | phytotoxicity (qualitative), soil drench (Corn plants; [7]) | phytotoxicity (qualitative), soil drench (Corn plants; [8]) | phytotoxicity (qualitative), soil drench (Corn plants; [12]) | phytotoxicity (qualitative), soil drench (Corn plants; [9]) | phytotoxicity (qualitative), soil drench (Corn plants; [13]) | phytotoxicity (qualitative), soil drench (Corn plants; [10]) | phytotoxicity (qualitative), soil drench (Corn plants; [11]) | further results
Cc1ccc(C(C)C)cc1OCC(=O)O [carvacryloxyacetic acid, 2-(5-isopropyl-2-methylphenoxy)acetic acid] | completely prevented from growing | XXX (plant death) | 100% | 100% | significant chlorosis and phytotoxicity | -- | --- | --- | XXX | XXX | XXX | caused phytotoxicity | - | -- | - | - | XXX | XXX | XXX | -- | pre-emergent effect on soybeans (words) (soybeans; listed as Carvacryloxyacetic acid): prevented the emergence of soybean plants entirely; effect on corn plants, soil drench (Corn plants; 3 weeks, 1%): did not cause mortality; effect on corn plants, soil drench (Corn plants; older plants, 2-days, 0.5%): did not cause any significant effects; effect on corn plants, soil drench (Corn plants; [14]): did not show any significant effects; phytotoxicity (qualitative), soil drench (Soybean plants [3]): XXX; Percentage mortality ([4]; 2-days after treatment): 100%; Percentage mortality ([4]; 3-weeks after treatment): 100%; chlorosis and phytotoxicity [4]: significant chlorosis and phytotoxicity; corn seed germination at day 3 (corn seeds): some level of germination; Percentage mortality ([5]; 2-days after treatment): 100%; Percentage mortality ([5]; 3-weeks after treatment): 100%; chlorosis and phytotoxicity [5]: significant chlorosis and phytotoxicity
Cc1ccc(C(C)C)c(OCC(=O)O)c1 [thymyloxyacetic acid, 2-(2-isopropyl-5-methylphenoxy)acetic acid] | most susceptible | − − − | 100% | 100% | significant chlorosis and phytotoxicity | - | - | -- | - | XXX | XXX | caused phytotoxicity | -- | --- | - | - | XXX | XXX | XXX | XXX | pre-emergent effect on soybeans (words) (soybeans; listed as Thymyloxyacetic acid): major inhibition of growth; phytotoxicity (qualitative), soil drench (Soybean plants [2]; [12]): ---; effect on soybean plants, soil drench (Soybean plants [2]; old plant, 3 weeks after exposure, 0.5%): significant wilting and chlorosis; effect on soybean plants, soil drench (Soybean plants [2]; old plants, 3 weeks after exposure, 1%): experienced mortality; mortality of soybean plants, soil drench (Soybean plants [2]; young plants, 3 weeks after exposure): 100%; effect on soybean plants, soil drench (Soybean plants [2]; young plants, 2 days after exposure, 0.5%): Minor inhibition; effect on soybean plants, soil drench (Soybean plants [2]; young plants, 2 days after exposure, 1%): major inhibition; effect on corn plants, soil drench (Corn plants; older plants, 2 days after treatment, 0.5% and 1%): significant phytotoxic effects; effect on corn plants, soil drench (Corn plants; [14]): did not show any significant effects; phytotoxicity (qualitative), soil drench (Soybean plants [3]): XXX; Percentage mortality ([4]; 2-days after treatment): 100%; Percentage mortality ([4]; 3-weeks after treatment): 100%; chlorosis and phytotoxicity [4]: significant chlorosis and phytotoxicity; inhibition of corn seed germination (corn seeds; seed coating 1% weight compound/weight seed, 3, 5, 7 days): second most significant inhibition; corn seed germination at day 3 (corn seeds): prevented any germination; Percentage mortality ([5]; 2-days after treatment): 100%; Percentage mortality ([5]; 3-weeks after treatment): 100%; chlorosis and phytotoxicity [5]: significant chlorosis and phytotoxicity
